{"source": "patent US11267861B2", "about": "“Peptide-oligourea foldamer compounds and methods of their use” (UREKA SARL, priority 2016, dated 2022)", "key": {"[1]": {"system": "trypsin", "experiment": "Enzymatic degradation by trypsin", "format": "in vitro ADME", "conditions": "compared to native peptide GLP-1 (seq. 1)", "description": "Enzymatic Degradation—Chymotrypsin and Trypsin. Stock solutions of the compounds were prepared at a concentration of 400 μM in a solution of 50 mM HEPES buffer, 50 mM NaCl, 0.05% Tween-80, pH 8.0. […] Stability of compounds to chymotrypsin was assessed by conducting a protease reaction in a 96-well plates at room temperature. […] Each compound was also incubated in the absence of the enzyme (12 μL of HEPES buffer and 38 μL of the compound).\nAt the indicated time (5, 10, 15, 30 and 60 minute(s)) a 10 μL aliquot was removed from each experimental reaction and pipet into 100 μL of 1% TFA solution to quench the reaction (t=0 minutes was determined using the reaction without enzyme). A portion of the quenched reaction solution was analyzed by HPLC. The time course of peptide degradation was determined by integrating the area of each peak in a series of HPLC traces. Another portion of the quenched reaction was analyzed by LC-MS for identification of each peptide fragment."}, "[2]": {"target": "T1, Leucyl aminopeptidase (EC 3.4.11.1) (Sus scrofa, UniProt P28839)", "T1 construct": "from porcine kidney (Sigma); chromatographically purified suspension; purchased Sigma; host or cells: porcine kidney", "T1 sequence (P28839 1-519)": "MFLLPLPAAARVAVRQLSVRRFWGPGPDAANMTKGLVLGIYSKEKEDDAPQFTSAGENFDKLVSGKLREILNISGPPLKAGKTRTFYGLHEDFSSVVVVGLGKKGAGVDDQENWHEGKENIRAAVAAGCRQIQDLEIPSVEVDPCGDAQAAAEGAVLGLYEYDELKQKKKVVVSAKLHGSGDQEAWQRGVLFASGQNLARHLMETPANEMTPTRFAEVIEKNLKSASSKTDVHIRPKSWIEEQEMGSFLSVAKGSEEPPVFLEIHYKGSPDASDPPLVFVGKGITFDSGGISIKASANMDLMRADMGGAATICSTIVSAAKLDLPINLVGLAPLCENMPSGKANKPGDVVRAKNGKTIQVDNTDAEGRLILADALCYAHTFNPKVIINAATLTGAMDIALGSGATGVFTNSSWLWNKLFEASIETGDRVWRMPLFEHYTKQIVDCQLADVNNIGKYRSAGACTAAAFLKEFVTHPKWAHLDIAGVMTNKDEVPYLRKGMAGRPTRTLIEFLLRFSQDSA", "experiment": "Enzymatic degradation by leucyl aminopeptidase", "format": "in vitro ADME, porcine", "conditions": "compared to the native peptides", "description": "Enzymatic Degradation—Leucyl Aminopeptidase. Leucyl aminopeptidase (EC 3.4.11.1) from porcine kidney (Sigma); chromatographically purified suspension in 2.9 M (NH4)2SO4, 0.1 M Tris, 5 mM MgCl2 solution, pH 8.0; stock solution in PBS buffer (pH 7.2, 0.01 M). For each degradation experiment, stock solutions of the peptidic substrate and the enzyme were made using phosphate-buffered saline (PBS) buffer solution. […] The pH was adjusted either with NaOH (1 M) or with HCl (1 M) prior to use. A solution of the substrate in PBS buffer (pH 7.2, 0.01 M) and a solution of the required amount of enzyme, were mixed and incubated at 25° C. for 4 hours. Degradation was stopped with concentrated AcOH, and buffer solution was added so that the total volume reached 150 μL.\n(§1) The resulting mixture was analyzed by reversed-phase HPLC. A mixture of CH3CN/H2O (0.1% TFA) was used as eluent. Gradients were 10% CH3CN to 100% CH3CN in 10 minutes. The flow rate, for all separations, was 1 mL·min^−1."}, "[3]": {"target": "T2, Carboxypeptidase A (EC 3.4.17.1) (Bos taurus, UniProt P00730)", "T2 construct": "from bovine pancreas (Fluka), milky suspension; purchased Fluka; host or cells: bovine pancreas", "T2 sequence (P00730 111-419)": "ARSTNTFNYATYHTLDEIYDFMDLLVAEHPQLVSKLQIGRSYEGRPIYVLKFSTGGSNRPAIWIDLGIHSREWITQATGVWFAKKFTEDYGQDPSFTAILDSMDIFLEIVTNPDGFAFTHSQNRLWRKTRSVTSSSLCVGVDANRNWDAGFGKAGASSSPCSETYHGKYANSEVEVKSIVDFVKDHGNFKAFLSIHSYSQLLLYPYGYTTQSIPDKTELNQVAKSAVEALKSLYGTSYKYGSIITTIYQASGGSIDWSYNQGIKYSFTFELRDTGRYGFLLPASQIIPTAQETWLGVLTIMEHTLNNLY", "experiment": "Enzymatic degradation by carboxypeptidase A", "format": "in vitro ADME, bovine", "conditions": "same results = more stable than the native peptides", "description": "Enzymatic Degradation—Carboxypeptidase A. Carboxypeptidase A (EC 3.4.17.1) from bovine pancreas (Fluka), milky suspension, stock solution in PBS buffer (pH 7.5, 0.01 M). For each degradation experiment, stock solutions of the peptidic substrate and the enzyme were made using phosphate-buffered saline (PBS) buffer solution. The enzyme concentrations of the stock solutions were selected such that the standard substrates were totally degraded after a maximum of 15 min (ratio 2[enzyme]:100[substrate]). PBS buffer solution (10 mM sodium phosphate, 0.14 M NaCl) was prepared as follows: Solution A (4.75 mL of 0.2 M NaH2PO4.H2O), solution B (20.25 mL of 0.2 M Na2HPO4.H2O), NaCl (4.5 g) and H2O (25 mL) were stirred for 15 min at room temperature and diluted tenfold with H2O. The pH was adjusted either with NaOH (1 M) or with HCl (1 M) prior to use. A solution of the substrate in PBS buffer (pH 7.5, 0.01 M) and a solution of the required amount of enzyme, were mixed and incubated at 25° C. for 4 hours. Degradation was stopped with concentrated AcOH, and buffer solution was added so that the total volume reached 150 μL.\nas §1"}, "[4]": {"conditions": "in vivo; cited from earlier work"}, "[5]": {"target": "T3, mouse GLP-1 receptor (Mus musculus, UniProt O35659)", "T3 construct": "mouse GLP-1 receptor endogenously expressed in βTC6 cells; endogenous in cells; host or cells: βTC6 cells", "T3 sequence (O35659 22-463)": "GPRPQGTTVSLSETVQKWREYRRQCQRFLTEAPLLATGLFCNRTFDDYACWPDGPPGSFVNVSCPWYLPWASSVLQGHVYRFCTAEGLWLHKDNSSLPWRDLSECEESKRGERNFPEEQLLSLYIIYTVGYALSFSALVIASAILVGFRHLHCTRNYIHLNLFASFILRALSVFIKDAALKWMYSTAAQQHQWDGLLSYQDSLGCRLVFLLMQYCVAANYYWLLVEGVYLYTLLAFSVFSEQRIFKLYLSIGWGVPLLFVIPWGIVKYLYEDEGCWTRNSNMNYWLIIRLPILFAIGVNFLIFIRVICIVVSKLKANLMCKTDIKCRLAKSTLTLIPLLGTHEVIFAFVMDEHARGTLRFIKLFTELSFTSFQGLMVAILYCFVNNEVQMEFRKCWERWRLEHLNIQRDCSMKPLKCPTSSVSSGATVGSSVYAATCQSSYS", "experiment": "GLP-1 functional assay: agonist activity by cAMP production (HTRF) in βTC6 cells", "format": "cell-based", "conditions": "read-out: EC50 (nM), GLP-1 Functional Assay", "description": "For stimulated control measurement, separate assay wells contain 10 nM GLP-1(7-37) were utilized.\nFollowing incubation, the cells were lysed and the fluorescence acceptor (D2-labeled cAMP) and fluorescence donor (anti-cAMP antibody labeled with europium cryptate) were added. […] The results are expressed as a percent of the control response to 10 nM GLP-1(7-37). The standard reference agonist is GLP-1(7-37), which was tested in each experiment at several concentrations to generate a concentration-response curve from which its EC50 value was calculated.\nHTRF (Homogeneous Time-Resolved Fluorescence) principle. The HTRF technology is based on time resolved fluorescence energy transfer (TR-FRET), which occurs between long-lived fluorophore Europium or Terbium Cryptates, and EuK or Tb respectively, as a donor and the allophycocyanin XL665, d2 or Red as acceptor. Many compounds and proteins present in biological fluids or serum are naturally fluorescent, and the use of conventional, prompt fluorescence leads to serious limitations in assay sensitivity. The use of long-lived fluorophore combined with time-resolved detection (a delay between excitation and emission detection) minimizes prompt fluorescence interference."}}, "note": "Numbered stars: 1 amine (or outer) side, 2 acyl side, 3 side chain; on linkers, the order of the positions; unused ones are H or OH. Peptide text beside a SMILES is read from it. * marks the point of attachment. X10 = C[C@@H](CN*)NC(=O)[C@@H](N)Cc1c[nH]cn1; X2 = C[C@@H](O)[C@H](N)C(=O)N[C@@H](CO)CN*; X3 = O=C(O)[C@@H]1CCCN1C(=O)NC[C@H](CO)N*; CO = O=C([*:1])[*:2]", "data": [{"molecule": "CC[C@H](C)[C@H](NC(=O)[C@H](Cc1ccccc1)NC(=O)NC[C@H](CCC(=O)O)NC(=O)[C@H](CCCCN)NC(=O)[C@H](C)NC(=O)[C@H](C)NC(=O)[C@H](CCC(N)=O)NC(=O)CNC(=O)[C@H](CCC(=O)O)NC(=O)[C@H](CC(C)C)NC(=O)[C@H](Cc1ccc(O)cc1)NC(=O)[C@H](CO)NC(=O)[C@H](CO)NC(=O)[C@@H](NC(=O)[C@H](CC(=O)O)NC(=O)[C@H](CO)NC(=O)[C@@H](NC(=O)[C@H](Cc1ccccc1)NC(=O)[C@@H](NC(=O)CNC(=O)[C@H](CCC(=O)O)NC(=O)[C@H](C)NC(=O)[C@@H](N)Cc1c[nH]cn1)[C@@H](C)O)[C@@H](C)O)C(C)C)C(=O)N[C@@H](C)C(=O)N[C@@H](Cc1c[nH]c2ccccc12)C(=O)N[C@@H](CC(C)C)C(=O)N[C@H](C(=O)N[C@@H](CCCCN)CNC(=O)NCC(=O)N[C@@H](CCCNC(=N)N)CNC(=O)NCC(=O)O)C(C)C", "note": "[Compound 11]", "values": [{"measurement": "half-life in the trypsin degradation test compared to native peptide", "setting": "[1]", "value": "longer half-life"}]}, {"molecule": "CCCC[C@H](NC(=O)[C@H](CC(C)C)NC(=O)[C@H](Cc1c[nH]c2ccccc12)NC(=O)[C@H](CCC(N)=O)NC(=O)[C@@H](NC(=O)[C@H](Cc1ccccc1)NC(=O)[C@H](CC(=O)O)NC(=O)[C@H](CCC(N)=O)NC(=O)[C@H](C)NC(=O)[C@H](CCCNC(=N)N)NC(=O)[C@H](CCCNC(=N)N)NC(=O)[C@H](CO)NC(=O)[C@H](CC(=O)O)NC(=O)[C@H](CC(C)C)NC(=O)[C@H](Cc1ccc(O)cc1)NC(=O)[C@H](CCCCN)NC(=O)[C@H](CO)NC(=O)[C@H](Cc1ccc(O)cc1)NC(=O)[C@H](CC(=O)O)NC(=O)[C@H](CO)NC(=O)[C@@H](NC(=O)[C@H](Cc1ccccc1)NC(=O)[C@@H](NC(=O)CNC(=O)[C@H](CCC(N)=O)NC(=O)[C@H](CO)NC(=O)NC[C@@H](N)Cc1c[nH]cn1)[C@@H](C)O)[C@@H](C)O)C(C)C)C(=O)N[C@@H](CC(N)=O)C(=O)N[C@H](C(=O)O)[C@@H](C)O", "note": "[Compound 17]", "values": [{"measurement": "stability (half-life) with leucyl aminopeptidase compared to native peptides", "setting": "[2]", "value": "more stable than the native peptides"}]}, {"molecule": "CCCC[C@H](NC(=O)[C@H](CC(C)C)NC(=O)[C@H](Cc1c[nH]c2ccccc12)NC(=O)[C@H](CCC(N)=O)NC(=O)[C@@H](NC(=O)[C@H](Cc1ccccc1)NC(=O)[C@H](CC(=O)O)NC(=O)[C@H](CCC(N)=O)NC(=O)[C@H](C)NC(=O)[C@H](CCCNC(=N)N)NC(=O)[C@H](CCCNC(=N)N)NC(=O)[C@H](CO)NC(=O)[C@H](CC(=O)O)NC(=O)[C@H](CC(C)C)NC(=O)[C@H](Cc1ccc(O)cc1)NC(=O)[C@H](CCCCN)NC(=O)[C@H](CO)NC(=O)[C@H](Cc1ccc(O)cc1)NC(=O)[C@H](CC(=O)O)NC(=O)[C@H](CO)NC(=O)[C@@H](NC(=O)[C@H](Cc1ccccc1)NC(=O)[C@@H](NC(=O)CNC(=O)[C@H](CCC(N)=O)NC(=O)NC[C@H](CO)NC(=O)[C@@H](N)Cc1c[nH]cn1)[C@@H](C)O)[C@@H](C)O)C(C)C)C(=O)N[C@@H](CC(N)=O)C(=O)N[C@H](C(=O)O)[C@@H](C)O", "note": "[Compound 18]", "values": [{"measurement": "stability (half-life) with leucyl aminopeptidase compared to native peptides", "setting": "[2]", "value": "more stable than the native peptides"}]}, {"molecule": "CC(C)C[C@H](NC(=O)[C@H](C)NC(=O)[C@H](Cc1c[nH]c2ccccc12)NC(=O)[C@H](Cc1ccc(O)cc1)NC(=O)[C@H](CCC(=O)O)NC(=O)[C@H](C)NC(=O)[C@H](Cc1ccccc1)NC(=O)NC[C@H](CO)NC(=O)[C@@H](N)[C@@H](C)O)C(=O)N[C@@H](CC(C)C)C(=O)N[C@@H](CO)CNC(=O)N1CCC[C@H]1C(=O)O", "note": "[Compound 24] ({X2-CO}-FAEYWALL-X3)", "values": [{"measurement": "stability with carboxipeptidase A compared to native peptides", "setting": "[3]", "value": "same results"}]}, {"molecule": "Albiglutide", "values": [{"measurement": "half-life", "setting": "[4]", "value": "four to seven"}]}, {"molecule": "{X10-CO}-EGTFTSDLSKQLEEEAVRLFIEWLKNGGPSSGAPPSKKKKKK-NH2 [Compound 67]", "values": [{"measurement": "EC50", "setting": "[5]", "value": 0.082, "unit": "nM"}]}]}
